{
  "source": "the supplement of paper PMC10307832",
  "assay_in_all_cases": "relative viability (nuclei count vs DMSO), 5 days (fraction); higher = more cells survive",
  "key": {"RERF-LC-KJ": {"test_system": "RERF-LC-KJ", "summary_of_the_method": "(§1)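 The day after seeding in 1536-well plates, lung cancer cell lines were treated by pin tool with a single drug, or with a fixed anchor-drug dose together with five library-drug doses (not always all listed) in √10 steps. After 5 days, a combined fix-and-stain solution (final 0.05% Triton X-100, 1% formaldehyde, 1 ug/ml Hoechst) was added. Nuclei counted on 4× images gave relative viability as treated counts over vehicle counts, reported as the median of duplicate plates.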"}, "EKVX": {"test_system": "EKVX", "summary_of_the_method": "as §1"}, "NCI-H2405": {"test_system": "NCI-H2405", "summary_of_the_method": "as §1"}, "NCI-H1666": {"test_system": "NCI-H1666", "summary_of_the_method": "as §1"}, "NCI-H838": {"test_system": "NCI-H838", "summary_of_the_method": "as §1"}, "NCI-H1395": {"test_system": "NCI-H1395", "summary_of_the_method": "as §1"}, "HARA": {"test_system": "HARA", "summary_of_the_method": "as §1"}, "BEN": {"test_system": "BEN", "summary_of_the_method": "as §1"}, "NCI-H460": {"test_system": "NCI-H460", "summary_of_the_method": "as §1"}, "NCI-H1993": {"test_system": "NCI-H1993", "summary_of_the_method": "as §1"}, "LOU-NH91": {"test_system": "LOU-NH91", "summary_of_the_method": "as §1"}, "NCI-H1975": {"test_system": "NCI-H1975", "summary_of_the_method": "as §1"}, "NCI-H1793": {"test_system": "NCI-H1793", "summary_of_the_method": "as §1"}, "NCI-H650": {"test_system": "NCI-H650", "summary_of_the_method": "as §1"}, "NCI-H1915": {"test_system": "NCI-H1915", "summary_of_the_method": "as §1"}, "LU99A": {"test_system": "LU99A", "summary_of_the_method": "as §1"}, "A-427": {"test_system": "A-427", "summary_of_the_method": "as §1"}},
  "data": [
    {"smiles": "COCC1(CO)C(=O)C2CCN1CC2", "note": "(centres undefined) [PRIMA-1MET] + NC(=O)Nc1cc(-c2cccc(F)c2)sc1C(=O)N[C@H]1CCCNC1 [AZD7762] (partner 0.2 µM)", "values": [
      {"measurement": "relative viability", "setting": "RERF-LC-KJ; first compound 0.2 µM", "value": 1.11},
      {"measurement": "relative viability", "setting": "RERF-LC-KJ; first compound 0.6325 µM", "value": 0.875},
      {"measurement": "relative viability", "setting": "RERF-LC-KJ; first compound 2 µM", "value": 0.928},
      {"measurement": "relative viability", "setting": "RERF-LC-KJ; first compound 6.325 µM", "value": 1.04},
      {"measurement": "relative viability", "setting": "RERF-LC-KJ; first compound 20 µM", "value": 0.978},
      {"measurement": "relative viability", "setting": "EKVX; first compound 0.2 µM", "value": 0.72},
      {"measurement": "relative viability", "setting": "EKVX; first compound 2 µM", "value": 0.524},
      {"measurement": "relative viability", "setting": "EKVX; first compound 6.325 µM", "value": 0.748},
      {"measurement": "relative viability", "setting": "EKVX; first compound 20 µM", "value": 0.378},
      {"measurement": "relative viability", "setting": "NCI-H2405; first compound 0.2 µM", "value": 0.753},
      {"measurement": "relative viability", "setting": "NCI-H2405; first compound 0.6325 µM", "value": 0.748},
      {"measurement": "relative viability", "setting": "NCI-H2405; first compound 6.325 µM", "value": 0.676},
      {"measurement": "relative viability", "setting": "NCI-H2405; first compound 20 µM", "value": 0.0739},
      {"measurement": "relative viability", "setting": "NCI-H1666; first compound 0.2 µM", "value": 0.841},
      {"measurement": "relative viability", "setting": "NCI-H1666; first compound 0.6325 µM", "value": 0.688},
      {"measurement": "relative viability", "setting": "NCI-H1666; first compound 2 µM", "value": 0.798},
      {"measurement": "relative viability", "setting": "NCI-H1666; first compound 6.325 µM", "value": 0.817},
      {"measurement": "relative viability", "setting": "NCI-H1666; first compound 20 µM", "value": 0.728},
      {"measurement": "relative viability", "setting": "NCI-H838; first compound 0.2 µM", "value": 0.989},
      {"measurement": "relative viability", "setting": "NCI-H838; first compound 0.6325 µM", "value": 0.88},
      {"measurement": "relative viability", "setting": "NCI-H838; first compound 2 µM", "value": 0.9},
      {"measurement": "relative viability", "setting": "NCI-H838; first compound 6.325 µM", "value": 1.05},
      {"measurement": "relative viability", "setting": "NCI-H838; first compound 20 µM", "value": 0.849},
      {"measurement": "relative viability", "setting": "NCI-H1395; first compound 0.2 µM", "value": 0.376},
      {"measurement": "relative viability", "setting": "NCI-H1395; first compound 2 µM", "value": 0.385},
      {"measurement": "relative viability", "setting": "NCI-H1395; first compound 6.325 µM", "value": 0.38},
      {"measurement": "relative viability", "setting": "NCI-H1395; first compound 20 µM", "value": 0.129},
      {"measurement": "relative viability", "setting": "HARA; first compound 0.2 µM", "value": 0.308},
      {"measurement": "relative viability", "setting": "HARA; first compound 0.6325 µM", "value": 0.265},
      {"measurement": "relative viability", "setting": "HARA; first compound 2 µM", "value": 0.493},
      {"measurement": "relative viability", "setting": "HARA; first compound 6.325 µM", "value": 0.333},
      {"measurement": "relative viability", "setting": "HARA; first compound 20 µM", "value": 0.254},
      {"measurement": "relative viability", "setting": "BEN; first compound 0.2 µM", "value": 0.733},
      {"measurement": "relative viability", "setting": "BEN; first compound 0.6325 µM", "value": 0.603},
      {"measurement": "relative viability", "setting": "BEN; first compound 6.325 µM", "value": 0.653},
      {"measurement": "relative viability", "setting": "BEN; first compound 20 µM", "value": 0.652},
      {"measurement": "relative viability", "setting": "NCI-H460; first compound 0.2 µM", "value": 0.705},
      {"measurement": "relative viability", "setting": "NCI-H460; first compound 0.6325 µM", "value": 0.382},
      {"measurement": "relative viability", "setting": "NCI-H460; first compound 2 µM", "value": 0.659},
      {"measurement": "relative viability", "setting": "NCI-H460; first compound 6.325 µM", "value": 0.703},
      {"measurement": "relative viability", "setting": "NCI-H460; first compound 20 µM", "value": 0.251},
      {"measurement": "relative viability", "setting": "NCI-H1993; first compound 0.2 µM", "value": 0.476},
      {"measurement": "relative viability", "setting": "NCI-H1993; first compound 2 µM", "value": 0.726},
      {"measurement": "relative viability", "setting": "NCI-H1993; first compound 6.325 µM", "value": 0.783},
      {"measurement": "relative viability", "setting": "NCI-H1993; first compound 20 µM", "value": 0.716},
      {"measurement": "relative viability", "setting": "LOU-NH91; first compound 0.2 µM", "value": 0.828},
      {"measurement": "relative viability", "setting": "LOU-NH91; first compound 0.6325 µM", "value": 0.74},
      {"measurement": "relative viability", "setting": "LOU-NH91; first compound 2 µM", "value": 0.658},
      {"measurement": "relative viability", "setting": "LOU-NH91; first compound 6.325 µM", "value": 0.71},
      {"measurement": "relative viability", "setting": "LOU-NH91; first compound 20 µM", "value": 0.386},
      {"measurement": "relative viability", "setting": "NCI-H1975; first compound 0.2 µM", "value": 0.807},
      {"measurement": "relative viability", "setting": "NCI-H1975; first compound 0.6325 µM", "value": 0.648},
      {"measurement": "relative viability", "setting": "NCI-H1975; first compound 2 µM", "value": 0.651},
      {"measurement": "relative viability", "setting": "NCI-H1975; first compound 6.325 µM", "value": 0.811},
      {"measurement": "relative viability", "setting": "NCI-H1975; first compound 20 µM", "value": 0.181},
      {"measurement": "relative viability", "setting": "NCI-H1793; first compound 0.2 µM", "value": 0.408},
      {"measurement": "relative viability", "setting": "NCI-H1793; first compound 0.6325 µM", "value": 0.651},
      {"measurement": "relative viability", "setting": "NCI-H1793; first compound 6.325 µM", "value": 0.685},
      {"measurement": "relative viability", "setting": "NCI-H1793; first compound 20 µM", "value": 0.382},
      {"measurement": "relative viability", "setting": "NCI-H650; first compound 0.2 µM", "value": 0.961},
      {"measurement": "relative viability", "setting": "NCI-H650; first compound 0.6325 µM", "value": 0.828},
      {"measurement": "relative viability", "setting": "NCI-H650; first compound 2 µM", "value": 0.983},
      {"measurement": "relative viability", "setting": "NCI-H650; first compound 6.325 µM", "value": 0.995},
      {"measurement": "relative viability", "setting": "NCI-H650; first compound 20 µM", "value": 0.148},
      {"measurement": "relative viability", "setting": "NCI-H1915; first compound 0.2 µM", "value": 0.745},
      {"measurement": "relative viability", "setting": "NCI-H1915; first compound 0.6325 µM", "value": 0.507},
      {"measurement": "relative viability", "setting": "NCI-H1915; first compound 2 µM", "value": 0.517},
      {"measurement": "relative viability", "setting": "NCI-H1915; first compound 6.325 µM", "value": 0.82},
      {"measurement": "relative viability", "setting": "NCI-H1915; first compound 20 µM", "value": 0.657},
      {"measurement": "relative viability", "setting": "LU99A; first compound 0.2 µM", "value": 0.548},
      {"measurement": "relative viability", "setting": "LU99A; first compound 0.6325 µM", "value": 0.167},
      {"measurement": "relative viability", "setting": "LU99A; first compound 2 µM", "value": 0.443},
      {"measurement": "relative viability", "setting": "LU99A; first compound 6.325 µM", "value": 0.361},
      {"measurement": "relative viability", "setting": "LU99A; first compound 20 µM", "value": 0.0555},
      {"measurement": "relative viability", "setting": "A-427; first compound 0.2 µM", "value": 0.741},
      {"measurement": "relative viability", "setting": "A-427; first compound 0.6325 µM", "value": 0.795},
      {"measurement": "relative viability", "setting": "A-427; first compound 2 µM", "value": 0.756},
      {"measurement": "relative viability", "setting": "A-427; first compound 6.325 µM", "value": 0.711},
      {"measurement": "relative viability", "setting": "A-427; first compound 20 µM", "value": 0.557}
    ]}
  ]
}
